# Literature values as cited in patent US20250387447A1, “Herbal composition for use in the improvement of physical and mental health recovery and maintenance, including the improvement of cognitive function or prevention of cognitive decline” (Conka Elite Ltd, priority 2022, published 2025).
# Test system: neurons
smiles,measurement,setting,value
COc1cc(/C=C/C(=O)CC(=O)/C=C/c2ccc(O)c(OC)c2)ccc1O [curcumin],neuron death caused by oxygen-glucose deprivation,,protects neurons from death
same,expression of thioredoxin,Nrf2 pathway,activate the expression of thioredoxin
